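48-hour exposure; five concentrations; linearly interpolated endpoints. Abbreviation: GI50, concentration required for 50% inhibition of growth. At the TGI there is no net growth.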
Experiments:
Test in all cases: inhibition of tumour cell growth, NCI panel, 48 h
[1] = test system: MDA-MB-231 breast
[2] = test system: M14 melanoma
[3] = test system: HL-60(TB) leukemia
[4] = test system: IGROV1 ovarian
[5] = test system: NCI-H23 lung
[6] = test system: RXF 393 renal
[7] = test system: LOX IMVI melanoma
[8] = test system: K-562 leukemia
[9] = test system: SK-MEL-28 melanoma
[10] = test system: UACC-62 melanoma

| SMILES | GI50 [1] [µM] | TGI [1] [µM] | GI50 [2] [µM] | TGI [2] [µM] | GI50 [3] [µM] | TGI [3] [µM] | GI50 [4] [µM] | TGI [4] [µM] | GI50 [5] [µM] | TGI [5] [µM] | GI50 [6] [µM] | TGI [6] [µM] | GI50 [7] [µM] | TGI [7] [µM] | GI50 [8] [µM] | TGI [8] [µM] | GI50 [9] [µM] | TGI [9] [µM] | GI50 [10] [µM] | TGI [10] [µM] |
| --- | --- | --- | --- | --- | --- | --- | --- | --- | --- | --- | --- | --- | --- | --- | --- | --- | --- | --- | --- | --- |
| COC(=O)[C@H](C[C@H](Cc1ccccc1)NC(=O)c1csc([C@@H](C[C@H](C(C)C)N(C)C(=O)[C@@H](NC(=O)[C@H]2CCCCN2C)C(C)C)OC(C)=O)n1)NC(=O)OCc1ccccc1 | 0.00108 | > 4.9 | < 0.0009 | 0.365 | < 0.0009 | 0.00178 | 0.00119 | > 4.04 | 0.00111 | > 9 | < 0.0009 | > 9 | < 0.0009 | > 9 | < 0.0009 | > 3.46 | 0.0025 | 2.5 | < 0.0009 | > 9 |
| COc1ccc2c(c1)cn1c3ccc(O)cc3nc(N)c21 | 0.957 | 5.56 | 0.0798 | 4.98 | 0.765 | 31.3 | 0.176 | 6.59 | 0.394 | 17.7 | 0.0852 | 2.66 | 0.0712 | 1.94 | 0.0735 | 2.46 | 0.126 | 5.31 | 0.09 | 20 |
| NCCn1c(=O)[nH]c(=O)[nH]c1=S | > 100 | > 100 | > 100 | > 100 | > 100 | > 100 | > 100 | > 100 | > 100 | > 100 | > 100 | > 100 | > 100 | > 100 | 54.1 | > 100 | > 100 | > 100 | > 100 | > 100 |
| O=C1c2cccnc2C(=O)c2nc3cc(N4CCN(C5CC5)CC4)ccc3nc21 | 2.15 | 8.08 | 0.301 | 1.18 | 2.37 | 7.29 | 0.808 | 3.01 | 0.229 | 0.85 | 0.607 | 2.61 | 0.416 | 1.86 | 0.522 | > 20.7 | 0.567 | 1.98 | 0.222 | 0.631 |
| Cc1ccc(-c2cn3ccnc3c(-c3ccc(Cl)cc3)n2)cc1 | 0.506 | 50.1 | 0.416 | > 36.3 | 0.0856 | > 100 | 1.55 | > 83 | 0.433 | 27.6 | 2.16 | > 100 | 0.384 | 12.4 | 0.0352 | > 100 | 0.518 | 44 | 0.137 | 35.9 |
| Cn1cccc1-c1cc(-c2cccs2)nc(N)c1C#N | > 100 | > 100 |  |  | > 100 | > 100 | > 100 | > 100 | > 100 | > 100 | > 100 | > 100 | > 100 | > 100 | > 100 | > 100 | > 100 | > 100 | 87 | > 100 |
| Cc1ccc(N=Nc2c(O)c(C(=O)O)cc3ccccc23)cc1C |  | > 100 |  | > 100 |  | > 100 |  | > 100 |  | > 100 |  | > 100 |  |  |  | > 100 |  | > 100 |  | > 100 |
| CC#C[C@]1(O)CC[C@H]2[C@@H]3CCC4=CC(=O)CCC4=C3[C@@H](c3ccc4c(c3)OCO4)C[C@@]21C | 90.1 | 327 | 31 | 154 | 47.5 | 399 | 59.9 | 589 | 152 | > 1000 | 43.8 | 197 | 113 | 253 |  |  | 85.8 | 276 | 50 | 204 |
| COc1ccc(-c2nn3c(-c4cc(F)c(Cl)cc4Cl)nnc3s2)cc1 | 27.7 | > 100 | 25.6 | 95.9 | 15.6 | 43.9 |  |  | 29.9 | > 100 | 28.7 | 97.2 | 26.4 | > 100 | 5.13 | 44.7 | 25.8 | > 100 | 21.8 | > 100 |
| O=C1/C(=C\c2c[nH]c3ccccc23)c2ccccc2N1c1c(Cl)cccc1Cl | 1.59 | 3.21 |  |  | 1.55 | 3.82 | 1.19 | 3.18 | 1.66 | 3.38 | 2.02 | 3.92 | 1.59 | 3.09 | 2.28 | 5.4 | 2.14 | 3.8 | 1.33 | 2.64 |
| Cc1ccccc1[P+](Cc1ccccc1)(c1ccccc1)c1ccccc1 | 2.06 | 28 | 2.51 | 12.6 | 1.23 | 4.04 | 1.8 | 32.1 |  |  | 4.35 | 51.8 | 2.27 | 15.3 | 1.08 | > 100 | 2.91 | 37.9 | 1.36 | 11.9 |

Reference: PubChem BioAssay (NCI)
